Assay results from US20260124184A1, “ONCE DAILY ALDOSTERONE SYNTHASE INHIBITOR (R)-(+)-5-(P-CYANOPHENYL)-5,6,7,8-TETRAHYDROIMIDAZO[L,5-A]PYRIDINE” (priority 2022, published 2026).
“Also recorded” adds a separate entry of the source. Where two headings read alike, the source gives them in different places.

Key:
[1] = tested on: patients with primary aldosteronism
Experimental: (§1) A double-blind, randomized, Phase 2 trial was conducted between November 2019 and June 2022 at 11 centres in Italy, Switzerland and the Netherlands (NCT04007406). […] Patients requiring fixed-dose antihypertensive therapy continued treatment throughout the study; steroid therapies, β-adrenergic and renin-angiotensin-aldosterone system blockers were not permitted. At 14-day intervals, office blood pressures were recorded and blood samples were taken for measurement of steroid and peptide hormones and electrolytes at a central laboratory.

[2] = tested on: patients with primary aldosteronism; remark: listed apart in the source
Experimental: as §1
Plasma aldosterone and plasma renin concentration were measured centrally under GCP regulations using the Liaison® chemiluminescent immunoassay kit supplied by DiaSorin S.p.A. Italy. The system used specific monoclonal antibodies to prevent cross reactions with other major potential reactants in the serum samples. The monoclonal antibodies directed against specific epitopes of the renin molecule allowed accurate and sensitive quantification. The assays were performed according to the instructions provided by the manufacturer. […] The analytical sensitivity was <0.97 ng/ml. […] The analytical sensitivity was <0.53 IU/mL.
For all efficacy endpoints, changes from baseline were calculated from linear models and accompanied by 95% confidence intervals and p values. Log-transformed values were used for changes in ARR. The full analysis set (FAS) and safety set were defined as all randomized patients who received at least one dose of study drug.

[3] = 4 mg once daily, n=10, Day 1 (baseline)
[4] = 4 mg once daily, n=10, Day 70 (after placebo withdrawal)
[5] = 8 mg once daily, n=11, Day 1 (baseline)
[6] = 8 mg once daily, n=11, Day 70 (after placebo withdrawal)
[7] = Day 70, after 14-day placebo withdrawal
[8] = 8 mg once daily, n=12, Day 1 (baseline)
[9] = 8 mg once daily, n=12, Day 70 (after placebo withdrawal)
[10] = 12 mg once daily, n=13, Day 1 (baseline)
[11] = 12 mg once daily, n=13, Day 70 (so in the source)

## (R)-(+)-5-(p-cyanophenyl)-5,6,7,8-tetrahydroimidazolium[1,5-a]pyridine dihydrogen phosphate [dexfadrostat phosphate]
[1]; [3]
  plasma potassium, mean: 3.36 nmol/L
  plasma potassium, median: 3.35 nmol/L
[1]; 4 mg once daily, n=10, Day 14
  plasma potassium, mean: 4.27 nmol/L
  plasma potassium, median: 4.35 nmol/L
[1]; 4 mg once daily, n=10, Day 28
  plasma potassium, mean: 3.85 nmol/L
  plasma potassium, median: 3.85 nmol/L
[1]; 4 mg once daily, n=10, Day 42
  plasma potassium, mean: 4.07 nmol/L
  plasma potassium, median: 4.15 nmol/L
[1]; 4 mg once daily, n=10, Day 56
  plasma potassium, mean: 4.10 nmol/L
  plasma potassium, median: 4.20 nmol/L
[1]; [4]
  plasma potassium, mean: 3.58 nmol/L
  plasma potassium, median: 3.60 nmol/L
[1]; [5]
  plasma potassium, mean: 3.55 nmol/L
  plasma potassium, median: 3.50 nmol/L
[1]; 8 mg once daily, n=11, Day 14
  plasma potassium, mean: 4.32 nmol/L
  plasma potassium, median: 4.30 nmol/L
[1]; 8 mg once daily, n=11, Day 28
  plasma potassium, mean: 4.04 nmol/L
  plasma potassium, median: 4.00 nmol/L
[1]; 8 mg once daily, n=11, Day 42
  plasma potassium, mean: 3.99 nmol/L
  plasma potassium, median: 3.90 nmol/L
[1]; 8 mg once daily, n=11, Day 56
  plasma potassium, mean: 4.10 nmol/L
  plasma potassium, median: 4.10 nmol/L
[1]; [6]
  plasma potassium, mean: 3.76 nmol/L
  plasma potassium, median: 3.80 nmol/L
[1]; [7]
  plasma potassium upon drug withdrawal: potassium values returned towards baseline levels
[1]; baseline potassium <3.6 mmol/L, 4 mg QD, Day 1 (baseline)
  plasma potassium concentration, mean: 3.1 mmol/L
[1]; baseline potassium <3.6 mmol/L, 4 mg QD, Day 14
  plasma potassium concentration, mean: 4.1 mmol/L
[1]; baseline potassium <3.6 mmol/L, 4 mg QD, Day 28
  plasma potassium concentration, mean: 3.8 mmol/L
[1]; baseline potassium <3.6 mmol/L, 4 mg QD, Day 42
  plasma potassium concentration, mean: 3.9 mmol/L
[1]; baseline potassium <3.6 mmol/L, 4 mg QD, Day 56
  plasma potassium concentration, mean: 4.0 mmol/L
[1]; baseline potassium <3.6 mmol/L, 4 mg QD, Day 70 (placebo withdrawal)
  plasma potassium concentration, mean: 3.3 mmol/L
[1]; baseline potassium <3.6 mmol/L, 8 mg QD, Day 1 (baseline)
  plasma potassium concentration, mean: 3.3 mmol/L
[1]; baseline potassium <3.6 mmol/L, 8 mg QD, Day 14
  plasma potassium concentration, mean: 4.2 mmol/L
[1]; baseline potassium <3.6 mmol/L, 8 mg QD, Day 28
  plasma potassium concentration, mean: 3.9 mmol/L
[1]; baseline potassium <3.6 mmol/L, 8 mg QD, Day 42
  plasma potassium concentration, mean: 4.0 mmol/L
[1]; baseline potassium <3.6 mmol/L, 8 mg QD, Day 56
  plasma potassium concentration, mean: 4.0 mmol/L
[1]; baseline potassium <3.6 mmol/L, 8 mg QD, Day 70 (placebo withdrawal)
  plasma potassium concentration, mean: 3.7 mmol/L
[1]; baseline potassium <3.6 mmol/L, 12 mg QD, Day 1 (baseline)
  plasma potassium concentration, mean: 3.3 mmol/L
[1]; baseline potassium <3.6 mmol/L, 12 mg QD, Day 14
  plasma potassium concentration, mean: 3.9 mmol/L
[1]; baseline potassium <3.6 mmol/L, 12 mg QD, Day 28
  plasma potassium concentration, mean: 4.0 mmol/L
[1]; baseline potassium <3.6 mmol/L, 12 mg QD, Day 42
  plasma potassium concentration, mean: 4.1 mmol/L
[1]; baseline potassium <3.6 mmol/L, 12 mg QD, Day 56
  plasma potassium concentration, mean: 3.8 mmol/L
[1]; baseline potassium <3.6 mmol/L, 12 mg QD, Day 70 (placebo withdrawal)
  plasma potassium concentration, mean: 3.7 mmol/L
[1]; baseline potassium ≤3.0 mmol/L, all doses QD, Day 1 (baseline)
  plasma potassium concentration, mean: 2.9 mmol/L
[1]; baseline potassium ≤3.0 mmol/L, all doses QD, Day 14
  plasma potassium concentration, mean: 3.9 mmol/L
[1]; baseline potassium ≤3.0 mmol/L, all doses QD, Day 28
  plasma potassium concentration, mean: 3.9 mmol/L
[1]; baseline potassium ≤3.0 mmol/L, all doses QD, Day 42
  plasma potassium concentration, mean: 4.0 mmol/L
[1]; baseline potassium ≤3.0 mmol/L, all doses QD, Day 56
  plasma potassium concentration, mean: 3.9 mmol/L
[1]; baseline potassium ≤3.0 mmol/L, all doses QD, Day 70 (placebo withdrawal)
  plasma potassium concentration, mean: 3.5 mmol/L
[1]; baseline potassium ≥3.6 mmol/L, 4 mg QD, Day 1 (baseline)
  plasma potassium concentration, mean: 3.8 mmol/L
[1]; baseline potassium ≥3.6 mmol/L, 4 mg QD, Day 14
  plasma potassium concentration, mean: 4.6 mmol/L
[1]; baseline potassium ≥3.6 mmol/L, 4 mg QD, Day 28
  plasma potassium concentration, mean: 4.0 mmol/L
[1]; baseline potassium ≥3.6 mmol/L, 4 mg QD, Day 42
  plasma potassium concentration, mean: 4.3 mmol/L
[1]; baseline potassium ≥3.6 mmol/L, 4 mg QD, Day 56
  plasma potassium concentration, mean: 4.3 mmol/L
[1]; baseline potassium ≥3.6 mmol/L, 4 mg QD, Day 70 (placebo withdrawal)
  plasma potassium concentration, mean: 4.0 mmol/L
[1]; baseline potassium ≥3.6 mmol/L, 8 mg QD, Day 1 (baseline)
  plasma potassium concentration, mean: 3.8 mmol/L
[1]; baseline potassium ≥3.6 mmol/L, 8 mg QD, Day 14
  plasma potassium concentration, mean: 4.3 mmol/L
[1]; baseline potassium ≥3.6 mmol/L, 8 mg QD, Day 28
  plasma potassium concentration, mean: 4.1 mmol/L
[1]; baseline potassium ≥3.6 mmol/L, 8 mg QD, Day 42
  plasma potassium concentration, mean: 3.9 mmol/L
[1]; baseline potassium ≥3.6 mmol/L, 8 mg QD, Day 56
  plasma potassium concentration, mean: 4.1 mmol/L
[1]; baseline potassium ≥3.6 mmol/L, 8 mg QD, Day 70 (placebo withdrawal)
  plasma potassium concentration, mean: 3.9 mmol/L
[1]; baseline potassium ≥3.6 mmol/L, 12 mg QD, Day 1 (baseline)
  plasma potassium concentration, mean: 3.9 mmol/L
[1]; baseline potassium ≥3.6 mmol/L, 12 mg QD, Day 14
  plasma potassium concentration, mean: 4.0 mmol/L
[1]; baseline potassium ≥3.6 mmol/L, 12 mg QD, Day 28
  plasma potassium concentration, mean: 4.1 mmol/L
[1]; baseline potassium ≥3.6 mmol/L, 12 mg QD, Day 42
  plasma potassium concentration, mean: 4.0 mmol/L
[1]; baseline potassium ≥3.6 mmol/L, 12 mg QD, Day 56
  plasma potassium concentration, mean: 3.9 mmol/L
[1]; baseline potassium ≥3.6 mmol/L, 12 mg QD, Day 70 (placebo withdrawal)
  plasma potassium concentration, mean: 3.7 mmol/L
[1]; baseline ≤3.0 mmol/L despite potassium supplements, all doses QD, Day 1 (baseline)
  plasma potassium concentration, mean: 3.2 mmol/L
[1]; baseline ≤3.0 mmol/L despite potassium supplements, all doses QD, Day 14
  plasma potassium concentration, mean: 4.0 mmol/L
[1]; baseline ≤3.0 mmol/L despite potassium supplements, all doses QD, Day 28
  plasma potassium concentration, mean: 4.1 mmol/L
[1]; baseline ≤3.0 mmol/L despite potassium supplements, all doses QD, Day 42
  plasma potassium concentration, mean: 4.2 mmol/L
[1]; baseline ≤3.0 mmol/L despite potassium supplements, all doses QD, Day 56
  plasma potassium concentration, mean: 4.0 mmol/L
[1]; baseline ≤3.0 mmol/L despite potassium supplements, all doses QD, Day 70 (placebo withdrawal)
  plasma potassium concentration, mean: 3.8 mmol/L
[1]; each dose arm, sustained over active treatment period
  effect on plasma potassium concentration: rapid and significant (p<0.001) increase in plasma potassium concentrations
[1]; in presence of potassium supplements, all doses QD, Day 1 (baseline)
  plasma potassium concentration, mean: 3.3 mmol/L
[1]; in presence of potassium supplements, all doses QD, Day 14
  plasma potassium concentration, mean: 4.1 mmol/L
[1]; in presence of potassium supplements, all doses QD, Day 28
  plasma potassium concentration, mean: 4.0 mmol/L
[1]; in presence of potassium supplements, all doses QD, Day 42
  plasma potassium concentration, mean: 4.1 mmol/L
[1]; in presence of potassium supplements, all doses QD, Day 56
  plasma potassium concentration, mean: 4.1 mmol/L
[1]; in presence of potassium supplements, all doses QD, Day 70 (placebo withdrawal)
  plasma potassium concentration, mean: 3.8 mmol/L
[2]; 4 mg once daily, n=10
  change in ARR from baseline to Day 56, mean: −20.87 (ng/dL)/(mU/L)
  change in ARR from baseline to Day 56, median: −14.98 (ng/dL)/(mU/L)
[2]; [3]
  ARR, mean: 24.56 (ng/dL)/(mU/L)
  ARR, median: 21.37 (ng/dL)/(mU/L)
[2]; 4 mg once daily, n=10, Day 14
  ARR, mean: 4.57 (ng/dL)/(mU/L)
  ARR, median: 3.76 (ng/dL)/(mU/L)
[2]; 4 mg once daily, n=10, Day 28
  ARR, mean: 2.57 (ng/dL)/(mU/L)
  ARR, median: 1.76 (ng/dL)/(mU/L)
[2]; 4 mg once daily, n=10, Day 42
  ARR, mean: 2.87 (ng/dL)/(mU/L)
  ARR, median: 2.07 (ng/dL)/(mU/L)
[2]; 4 mg once daily, n=10, Day 56
  ARR, mean: 3.70 (ng/dL)/(mU/L)
  ARR, median: 2.52 (ng/dL)/(mU/L)
[2]; [4]
  ARR, mean: 12.34 (ng/dL)/(mU/L)
  ARR, median: 11.47 (ng/dL)/(mU/L)
[2]; 8 mg once daily, n=12
  change in ARR from baseline to Day 56, mean: −10.61 (ng/dL)/(mU/L)
  change in ARR from baseline to Day 56, median: −6.99 (ng/dL)/(mU/L)
[2]; [8]
  ARR, mean: 11.58 (ng/dL)/(mU/L)
  ARR, median: 7.18 (ng/dL)/(mU/L)
[2]; 8 mg once daily, n=12, Day 14
  ARR, mean: 0.8 (ng/dL)/(mU/L)
  ARR, median: 0.31 (ng/dL)/(mU/L)
[2]; 8 mg once daily, n=12, Day 28
  ARR, mean: 1.26 (ng/dL)/(mU/L)
  ARR, median: 0.4 (ng/dL)/(mU/L)
[2]; 8 mg once daily, n=12, Day 42
  ARR, mean: 0.74 (ng/dL)/(mU/L)
  ARR, median: 0.29 (ng/dL)/(mU/L)
[2]; 8 mg once daily, n=12, Day 56
  ARR, mean: 0.96 (ng/dL)/(mU/L)
  ARR, median: 0.27 (ng/dL)/(mU/L)
[2]; [9]
  ARR, mean: 4.19 (ng/dL)/(mU/L)
  ARR, median: 2.46 (ng/dL)/(mU/L)
[2]; 12 mg once daily, n=13
  change in ARR from baseline to Day 56, mean: −15.61 (ng/dL)/(mU/L)
  change in ARR from baseline to Day 56, median: −13.97 (ng/dL)/(mU/L)
[2]; [10]
  ARR, mean: 17.75 (ng/dL)/(mU/L)
  ARR, median: 17.8 (ng/dL)/(mU/L)
[2]; [11]
  ARR, mean: 9.3 (ng/dL)/(mU/L)
  ARR, median: 13.72 (ng/dL)/(mU/L)
[2]; [7]
  ARR upon drug withdrawal: ARR values returned towards baseline values
[2]; all doses combined, n=35
  change in ARR from baseline to Day 56, mean: −15.40 (ng/dL)/(mU/L)
  change in ARR from baseline to Day 56, median: −11.76 (ng/dL)/(mU/L)
[2]; all patients, Day 1 to Day 56, FIG. 2A, p<0.0001
  LSM change in lognormal values of ARR from baseline: −2.54 (95% CI −2.9 to −2.2)
[2]; all three doses (4 mg, 8 mg, 12 mg)
  effect on ARR from baseline to day 56: significant reductions (p<0.0001) in ARR from baseline to day 56
[2]; all three doses, baseline to day 14, 28, 42 and 56
  effect on ARR over time: rapid and significant (p<0.0001) reductions in ARR; also recorded: rapid and significant reductions (p<0.0001) in ARR
